Reference: paper PMC12367838, “Relevance of kinetic interactions and co-formulants for plant protection product liver toxicity in vitro” (Archives of Toxicology, 2025)

How the values were obtained:
Experiment in all cases: P450-Glo screening system, CYP inhibition
Assay type in all cases: biochemical
CYP2C19 = target: T1, CYP2C19 (Homo sapiens, UniProt P33261); conditions: recombinant human CYP, luciferin-H EGE
T1 construct: purchased Promega
Text: (§1) The P450-Glo™ screening systems (Promega; Madison, Wisconsin, USA) were used in this study to explore the inhibitory properties of MDP on the major CYP isoforms involved in xenobiotic metabolism (CYP1A2, CYP2C9, CYP2C19, CYP2D6, and CYP3A4). HepaRG cells were not utilized in this assay to avoid potential cross reactivity since all CYP enzymes are expressed in this cell line. Therefore, this inhibition study relied on recombinant human CYP enzymes integrated in membrane preparation. The principle of the assay is based on the conversion of a luminogenic substrate (100 µM luciferin-ME for CYP1A2, 100 µM luciferin-H for CYP2C9, 50 µM luciferin-H EGE for CYP2C19, 30 µM luciferin-ME EGE for CYP2D6, and 100 µM luciferin-PPXE for CYP3A4) to luciferin by the respective enzyme. The assay was conducted according to the instructions of the supplier. Briefly, eight non-cytotoxic concentrations of MDP or a CYP selective inhibitor were preincubated for 10 min at 37 °C together with the luminogenic substrate, potassium phosphate buffer, and luciferin-free water, and the test compounds were added to white 96-well Costar® plates. After the preincubation, 25 µL of NADPH regeneration system (2.6 mM NADP + , 6.6 mM glucose-6-phosphate, 6.6 mM MgCl2, and 0.8 U/mL glucose-6-phosphate dehydrogenase) was added to each well to initiate CYP reactions. The plates were briefly shaken and taped before they were incubated at 37 °C for 10–30 min depending on the CYP enzyme under investigation. Luminescence of the luciferin product was initiated by adding 50 µL of the luciferin detection reagent. Subsequently, the plates were briefly shaken and then incubated for 20 min at room temperature in order to stabilize the luminescent signal. The luminescence was measured on the Infinite M200 PRO plate reader (Tecan; Männedorf, Switzerland). The measurements were corrected by subtracting the minus P450 control signals from each measurement and represented as changes in luminescence signals (ΔRLU). The ΔRLU values of MDP were compared with the ΔRLU values of the untreated samples and represented as relative changes in luminescence in relation to the control (%). Three independent experiments with three technical replicates were conducted (n = 3). Means and standard deviations for each treatment were calculated before calculating the IC50 values of MDP for each CYP enzyme.
(§2) A linear mixed-effects ANOVA (α = 0.05) described by Pinheiro and Bates ([2000]) followed by a post-hoc Dunnett test for multiple comparisons of treatment groups versus the control was used for statistical analysis of data from cytotoxicity assay, AdipoRed assay, CYP450 inhibition assay as well as mixture effects. R studio (ver. 4.4.1) was used to determine the effective concentration at relative triglyceride induction fold of 1.5 for each test compound.

CYP2C9 = target: T2, CYP2C9 (Homo sapiens, UniProt P11712); conditions: recombinant human CYP, luciferin-H
T2 construct: purchased Promega
T2 sequence (P11712 whole entry): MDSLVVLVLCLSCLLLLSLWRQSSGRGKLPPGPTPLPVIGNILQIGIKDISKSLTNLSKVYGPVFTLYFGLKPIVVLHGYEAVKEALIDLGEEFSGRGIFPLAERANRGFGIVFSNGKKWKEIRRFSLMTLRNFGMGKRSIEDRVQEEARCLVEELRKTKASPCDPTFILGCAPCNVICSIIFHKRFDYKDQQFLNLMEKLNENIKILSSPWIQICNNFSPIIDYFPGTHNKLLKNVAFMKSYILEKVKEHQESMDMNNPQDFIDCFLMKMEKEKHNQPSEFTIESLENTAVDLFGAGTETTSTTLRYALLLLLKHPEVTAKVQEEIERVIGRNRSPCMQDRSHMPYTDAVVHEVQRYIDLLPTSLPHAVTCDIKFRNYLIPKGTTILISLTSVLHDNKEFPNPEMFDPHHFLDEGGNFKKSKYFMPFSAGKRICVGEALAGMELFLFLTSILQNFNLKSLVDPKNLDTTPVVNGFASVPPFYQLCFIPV
Text: as §1, §2

CYP1A2 = target: T3, CYP1A2 (Homo sapiens, UniProt P05177); conditions: recombinant human CYP, luciferin-ME
T3 construct: purchased Promega
T3 sequence (P05177 1-516): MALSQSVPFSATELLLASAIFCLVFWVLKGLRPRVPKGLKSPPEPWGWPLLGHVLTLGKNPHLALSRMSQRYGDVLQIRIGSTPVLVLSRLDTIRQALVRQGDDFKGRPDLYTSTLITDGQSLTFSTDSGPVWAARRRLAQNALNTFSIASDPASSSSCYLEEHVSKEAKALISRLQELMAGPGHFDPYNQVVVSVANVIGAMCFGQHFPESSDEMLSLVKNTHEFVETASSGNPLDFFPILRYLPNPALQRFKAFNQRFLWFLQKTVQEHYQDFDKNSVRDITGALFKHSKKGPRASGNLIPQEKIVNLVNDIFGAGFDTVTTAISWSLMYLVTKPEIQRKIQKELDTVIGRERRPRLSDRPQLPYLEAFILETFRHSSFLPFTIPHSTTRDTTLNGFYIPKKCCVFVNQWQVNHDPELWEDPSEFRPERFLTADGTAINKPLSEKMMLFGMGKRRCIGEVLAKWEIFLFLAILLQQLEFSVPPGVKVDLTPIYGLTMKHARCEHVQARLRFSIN
Text: as §1, §2

CYP2D6 = target: T4, CYP2D6 (Homo sapiens, UniProt P10635); conditions: recombinant human CYP, luciferin-ME EGE
T4 construct: purchased Promega
T4 sequence (P10635 whole entry): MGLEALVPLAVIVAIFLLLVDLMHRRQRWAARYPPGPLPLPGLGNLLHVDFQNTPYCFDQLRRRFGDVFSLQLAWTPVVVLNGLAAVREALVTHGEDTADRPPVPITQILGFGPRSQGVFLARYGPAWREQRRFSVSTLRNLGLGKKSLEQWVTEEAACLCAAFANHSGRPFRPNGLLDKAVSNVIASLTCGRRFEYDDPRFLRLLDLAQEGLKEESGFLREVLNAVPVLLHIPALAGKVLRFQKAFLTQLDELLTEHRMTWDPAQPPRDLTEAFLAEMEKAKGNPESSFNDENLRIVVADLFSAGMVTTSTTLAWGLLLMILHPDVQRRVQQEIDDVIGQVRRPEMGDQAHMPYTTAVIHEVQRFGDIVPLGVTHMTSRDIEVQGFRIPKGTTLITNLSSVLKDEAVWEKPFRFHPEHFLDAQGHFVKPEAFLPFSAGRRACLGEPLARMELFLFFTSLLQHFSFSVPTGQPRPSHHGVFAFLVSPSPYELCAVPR
Text: as §1, §2

CYP3A4 = target: T5, CYP3A4 (Homo sapiens, UniProt P08684); conditions: recombinant human CYP, luciferin-PPXE
T5 construct: purchased Promega
T5 sequence (P08684 whole entry): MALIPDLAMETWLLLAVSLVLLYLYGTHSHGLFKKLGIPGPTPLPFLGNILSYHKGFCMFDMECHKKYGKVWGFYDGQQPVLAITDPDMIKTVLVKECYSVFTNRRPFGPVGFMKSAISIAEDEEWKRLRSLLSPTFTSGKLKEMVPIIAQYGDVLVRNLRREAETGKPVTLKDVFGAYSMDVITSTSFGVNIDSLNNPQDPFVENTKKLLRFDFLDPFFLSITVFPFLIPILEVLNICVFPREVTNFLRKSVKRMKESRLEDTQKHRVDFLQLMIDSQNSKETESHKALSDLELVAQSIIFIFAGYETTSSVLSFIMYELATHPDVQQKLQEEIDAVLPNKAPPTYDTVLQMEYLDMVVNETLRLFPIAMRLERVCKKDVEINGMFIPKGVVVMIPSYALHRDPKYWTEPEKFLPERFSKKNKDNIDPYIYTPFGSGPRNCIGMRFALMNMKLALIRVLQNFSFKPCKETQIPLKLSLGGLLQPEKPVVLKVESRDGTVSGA
Text: as §1, §2

T1 sequence (P33261 whole entry): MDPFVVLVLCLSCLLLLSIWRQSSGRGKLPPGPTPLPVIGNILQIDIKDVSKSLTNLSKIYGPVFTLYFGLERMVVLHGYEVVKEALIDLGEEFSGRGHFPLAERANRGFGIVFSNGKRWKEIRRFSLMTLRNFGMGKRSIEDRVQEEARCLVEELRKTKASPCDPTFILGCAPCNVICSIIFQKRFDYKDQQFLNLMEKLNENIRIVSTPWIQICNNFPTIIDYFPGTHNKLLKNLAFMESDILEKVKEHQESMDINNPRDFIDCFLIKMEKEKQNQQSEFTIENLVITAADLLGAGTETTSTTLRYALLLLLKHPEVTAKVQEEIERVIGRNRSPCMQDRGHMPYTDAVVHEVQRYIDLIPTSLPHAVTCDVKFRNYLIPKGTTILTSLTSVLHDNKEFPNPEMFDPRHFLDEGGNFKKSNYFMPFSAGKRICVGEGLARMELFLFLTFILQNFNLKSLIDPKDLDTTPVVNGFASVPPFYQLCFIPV

**Q.** `C#CCOc1ccc(CCNC(=O)C(OCC#C)c2ccc(Cl)cc2)cc1OC` (stereo not shown) [MDP, mandipropamid] was tested. Which IC50 (CYP2C19) did it give?
**A.** The IC50 was 0.824 µM.

**Q.** And the “IC50 CYP2C19” value (CYP2C19)?
**A.** Its value is 0.340 µg/mL.

**Q.** And the IC50 (CYP2C9)?
**A.** The IC50 was 1.18 µM.

**Q.** And the “IC50 CYP2C9” value (CYP2C9)?
**A.** The value was 0.488 µg/mL.

**Q.** What about the IC50 (CYP1A2) of the same molecule?
**A.** The IC50 was 28.7 µM.

**Q.** And the “IC50 CYP1A2” value (CYP1A2)?
**A.** The value was 11.8 µg/mL.

**Q.** What about the IC50 (CYP2D6) of the same molecule?
**A.** Its IC50 is 18.1 µM.

**Q.** And the “IC50 CYP2D6” value (CYP2D6)?
**A.** Its value is 7.47 µg/mL.

**Q.** What about the IC50 (CYP3A4) of the same molecule?
**A.** The IC50 was 1.32 µM.

**Q.** And the “IC50 CYP3A4” value (CYP3A4)?
**A.** Its value is 0.544 µg/mL.
